Common to all, as to settings: treatment: drug alone; 5 days
Experiment [1] relates to TK-10. The experiment is described as follows: minimum viability across doses, drug alone, relative to DMSO (fraction); higher = less growth inhibition. On the procedure:
(§1)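 Primary HTS: 8 RCC cell lines treated with 8 doses (up to 10 uM) of each library drug alone for 5 days; viability read by CellTiter-Glo and normalised to DMSO. GI50 was fitted with XLfit (4-parameter), AUC is the area under the dose-response curve, and minimum viability is the lowest fraction of DMSO viability across doses.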

Experiment [2] relates to 786-O. Described as above. As for the experimental part: as §1
Experiment [3] concerns CAKI-1. Described as above. As for the experimental part: as §1
The test system of experiment [4] is 769-P. The description is as above. As for the experimental part:
as §1

For experiment [5], the system named is ACHN. The description is as above. On the procedure:
as §1

Experiment [6] deals with SN12C. The description is as above. On the procedure:
as §1

Experiment [7] deals with A498. The description is as above. On the procedure: as §1
Experiment [8] deals with UO-31. Described as above. As for the experimental part:
as §1

The subject of experiment [9] is TK-10. The experiment is described as follows: GI50, drug alone; higher = less potent. As for the experimental part:
as §1

In experiment [10] the test system is 786-O. The experiment is described as follows: GI50, drug alone; higher = less potent. As for the experimental part: as §1
The subject of experiment [11] is CAKI-1. Briefly: GI50, drug alone; higher = less potent. On the procedure: as §1
The subject of experiment [12] is 769-P. Briefly: GI50, drug alone; higher = less potent. On the procedure:
as §1

Experiment [13] has as its system ACHN. The experiment is described as follows: GI50, drug alone; higher = less potent. On the procedure:
as §1

The subject of experiment [14] is SN12C. The experiment is described as follows: GI50, drug alone; higher = less potent. As for the experimental part:
as §1

In experiment [15] the test system is A498. Briefly: GI50, drug alone; higher = less potent. As for the experimental part: as §1
Experiment [16] concerns UO-31. Briefly: GI50, drug alone; higher = less potent. As for the experimental part:
as §1

For experiment [17], the system named is TK-10. The experiment is described as follows: AUC of dose-response viability curve, drug alone (arbitrary (AUC of normalised viability)); higher = less growth inhibition. As for the experimental part:
as §1

Experiment [18] has as its system 786-O. The description is as above. As for the experimental part:
as §1

The test system of experiment [19] is CAKI-1. Described as above. On the procedure: as §1
Experiment [20] concerns 769-P. The description is as above. On the procedure: as §1
Experiment [21] concerns ACHN. The description is as above. On the procedure: as §1
Experiment [22] deals with SN12C. Described as above. On the procedure: as §1
Experiment [23] has as its system A498. The description is as above. As for the experimental part:
as §1

Experiment [24] concerns UO-31. Described as above. On the procedure: as §1

On to `O=C(Cc1ccc(-c2ccc(OCCN3CCOCC3)cc2)cn1)NCc1ccccc1` [KX2-391], for which the “minimum viability across doses” value was found to be 0.27 in the experiment with TK-10 [1]; 0.00471 in the experiment on 786-O [2]; 0.142 in the experiment on CAKI-1 [3]; 0.0797 in the experiment with 769-P [4]; 0.113 with ACHN [5]; 0.102 with SN12C [6]. The “minimum viability across doses” value in the experiment on A498 [7] came to 0.177; in the experiment with UO-31 [8], 0.00967. The “GI50, drug alone” value is 0.193 µM in the experiment with TK-10 [9]; 0.0268 µM in the experiment on 786-O [10]; 0.0797 µM with CAKI-1 [11]; 0.0606 µM with 769-P [12]; 0.0755 µM in the experiment with ACHN [13]; 0.115 µM in the experiment on SN12C [14]. The “GI50, drug alone” value with A498 [15] was 0.0893 µM; in the experiment on UO-31 [16], 0.0852 µM. Moreover, the “AUC of dose-response viability curve” value in the experiment with TK-10 [17] stood at 1.95; in the experiment on 786-O [18], 0.9; in the experiment on CAKI-1 [19] it was 1.67; with 769-P [20], 1.43; in the experiment on ACHN [21], 1.66; in the experiment with SN12C [22], 1.72. Also, the “AUC of dose-response viability curve” value in the experiment with A498 [23] came out at 1.84; in the experiment with UO-31 [24] it was 1.48.

For the compound `COc1cc2nccc(Oc3ccc(NC(=O)Nc4ccc(F)cc4F)c(F)c3)c2cc1OC` [Ki8751], the “minimum viability across doses” value in the experiment with TK-10 [1] came to 0.72; in the experiment on 786-O [2], 0.673; in the experiment on CAKI-1 [3], 0.403; with 769-P [4], 0.559; in the experiment on ACHN [5] it was 0.574; in the experiment with SN12C [6] it was 0.877. Besides, the “minimum viability across doses” value in the experiment on A498 [7] amounted to 1; in the experiment with UO-31 [8], 0.00557. The “GI50, drug alone” value was above 10 µM in the experiment with TK-10 [9]; above 10 µM with 786-O [10]; 7.43 µM with CAKI-1 [11]; above 10 µM in the experiment with 769-P [12]; above 10 µM with ACHN [13]; above 10 µM in the experiment on SN12C [14]. For the same compound, the entries for the “GI50, drug alone” value in the experiment on A498 [15] and with UO-31 [16] were above 10 µM and 0.445 µM, respectively. The “AUC of dose-response viability curve” value is 3.08 in the experiment with TK-10 [17]; 3.06 with 786-O [18]; 3.34 in the experiment with CAKI-1 [19]; 3.31 in the experiment with 769-P [20]; 3.13 with ACHN [21]; 3.45 in the experiment on SN12C [22]. Moreover, the figures for the “AUC of dose-response viability curve” value in the experiment with A498 [23] and with UO-31 [24] were 5.49 and 2.83, respectively.

For the compound `CS(=O)(=O)CCNCc1ccc(-c2ccc3ncnc(Nc4ccc(OCc5cccc(F)c5)c(Cl)c4)c3c2)o1.Cc1ccc(S(=O)(=O)O)cc1.Cc1ccc(S(=O)(=O)O)cc1` [Lapatinib Ditosylate (Tykerb)], the “minimum viability across doses” value in the experiment on TK-10 [1] was found to be 0.39; with 786-O [2], 0.471; in the experiment on CAKI-1 [3], 0.48; with 769-P [4] it was 0.455; in the experiment on ACHN [5], 0.419; in the experiment with SN12C [6] it was 0.734. For the same compound, the “minimum viability across doses” value in the experiment on A498 [7] was 0.929; in the experiment on UO-31 [8] it was 1.05. Moreover, the “GI50, drug alone” value in the experiment on TK-10 [9] was 3.78 µM; with 786-O [10], above 10 µM; in the experiment on CAKI-1 [11] it was 9.61 µM; in the experiment on 769-P [12], 7.1 µM; in the experiment with ACHN [13] it was 5.29 µM; in the experiment with SN12C [14] it was above 10 µM. Further, the “GI50, drug alone” value in the experiment with A498 [15] and in the experiment with UO-31 [16] was above 10 µM throughout. In addition, the “AUC of dose-response viability curve” value in the experiment with TK-10 [17] was found to be 2.51; in the experiment on 786-O [18], 2.9; in the experiment on CAKI-1 [19], 3.24; in the experiment with 769-P [20], 2.86; with ACHN [21], 2.78; in the experiment on SN12C [22], 3.16. Moreover, the results for the “AUC of dose-response viability curve” value with A498 [23] and in the experiment with UO-31 [24] were 3.99 and 4.64, respectively.

`Nc1cccc2c1CN(C1CCC(=O)NC1=O)C2=O` (stereo unspecified) [Lenalidomide (Revlimid)]: the “minimum viability across doses” value in the experiment on TK-10 [1] was determined as 0.864; with 786-O [2], 0.325; with CAKI-1 [3], 0.972; in the experiment on 769-P [4], 0.963; in the experiment with ACHN [5], 0.878; in the experiment on SN12C [6], 0.865. Besides, the “minimum viability across doses” value was found to be 0.98 with A498 [7] and 1.19 in the experiment with UO-31 [8]. Further, the “GI50, drug alone” value is above 10 µM with TK-10 [9]; below 0.003 µM in the experiment on 786-O [10]; above 10 µM with CAKI-1 [11]; above 10 µM in the experiment with 769-P [12]; above 10 µM in the experiment with ACHN [13]; above 10 µM with SN12C [14]. For the same compound, the “GI50, drug alone” value in the experiment with A498 [15] and with UO-31 [16] was above 10 µM each time. For the same compound, the “AUC of dose-response viability curve” value in the experiment on TK-10 [17] came to 3.21; in the experiment on 786-O [18] it was 1.86; with CAKI-1 [19] it was 3.56; in the experiment on 769-P [20] it was 3.64; with ACHN [21] it was 3.29; in the experiment on SN12C [22], 3.28. In addition, the “AUC of dose-response viability curve” value in the experiment on A498 [23] amounted to 4.04; in the experiment on UO-31 [24] it was 5.03.

The values are drawn from the supplement of paper PMC8149375.
